Experimental data published in patent US6861431B2, “Compounds capable of modulating the activity of multidrug transporters and therapeutic use of the same” (The Board of Trustees of the University of Illinois, priority 2001, dated 2005).
Values after ≈ are worked out from the molar mass of the structure shown. “Also recorded” adds a separate entry of the source. Like-named read-outs stand apart in the source and are kept apart here. Blank lines part the entries; values can stand above or below the molecule they belong to.

Assays:
P-gp [1] = target: T1, P-gp (Homo sapiens, UniProt P08183); experiment: Drug resistance of mouse ConA cells expressing human P-gp (MDR1 cDNA transfection); format: cell-based; set-up: expressed in transfected cells; host or cells: mouse fibroblasts, line ConA, transfected with MDR1 cDNA in LNL6 (Mo-MuLV LTR promoter)
T1 sequence (P08183 whole entry): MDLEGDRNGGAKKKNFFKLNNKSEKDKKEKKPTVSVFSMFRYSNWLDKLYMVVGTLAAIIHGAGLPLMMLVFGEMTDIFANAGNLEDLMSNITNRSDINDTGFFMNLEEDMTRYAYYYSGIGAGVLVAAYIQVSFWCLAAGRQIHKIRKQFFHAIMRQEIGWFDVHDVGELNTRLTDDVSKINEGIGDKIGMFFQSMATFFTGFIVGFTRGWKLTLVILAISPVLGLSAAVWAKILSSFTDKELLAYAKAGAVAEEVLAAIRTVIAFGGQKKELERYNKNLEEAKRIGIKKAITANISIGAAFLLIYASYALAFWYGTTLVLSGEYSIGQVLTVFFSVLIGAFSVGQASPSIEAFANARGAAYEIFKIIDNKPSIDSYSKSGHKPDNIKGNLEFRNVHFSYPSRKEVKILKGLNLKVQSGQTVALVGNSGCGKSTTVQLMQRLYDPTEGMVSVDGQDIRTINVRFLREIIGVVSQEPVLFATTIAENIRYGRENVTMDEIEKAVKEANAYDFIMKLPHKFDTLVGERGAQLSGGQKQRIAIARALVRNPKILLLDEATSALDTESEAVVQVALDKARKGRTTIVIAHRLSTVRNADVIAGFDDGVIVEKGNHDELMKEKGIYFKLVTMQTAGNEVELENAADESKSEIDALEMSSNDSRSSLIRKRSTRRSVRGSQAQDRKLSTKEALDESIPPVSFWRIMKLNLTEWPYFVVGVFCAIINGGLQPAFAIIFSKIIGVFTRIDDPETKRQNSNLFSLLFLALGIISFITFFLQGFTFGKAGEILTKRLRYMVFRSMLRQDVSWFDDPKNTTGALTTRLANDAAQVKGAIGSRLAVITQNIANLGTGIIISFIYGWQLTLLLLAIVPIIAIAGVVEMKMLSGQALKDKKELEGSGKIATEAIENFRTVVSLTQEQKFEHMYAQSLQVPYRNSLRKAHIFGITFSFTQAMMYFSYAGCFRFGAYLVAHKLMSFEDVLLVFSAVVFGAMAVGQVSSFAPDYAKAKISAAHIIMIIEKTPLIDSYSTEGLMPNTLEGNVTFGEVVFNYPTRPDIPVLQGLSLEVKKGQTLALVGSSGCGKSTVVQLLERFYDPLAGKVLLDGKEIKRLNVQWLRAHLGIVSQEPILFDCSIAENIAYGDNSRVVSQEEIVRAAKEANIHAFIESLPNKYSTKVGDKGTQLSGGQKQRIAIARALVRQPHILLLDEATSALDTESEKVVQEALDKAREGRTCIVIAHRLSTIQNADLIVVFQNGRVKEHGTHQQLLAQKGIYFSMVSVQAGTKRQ
Excerpt: These cells are known to overexpress P-gp as result of MDR1 gene amplification. To completely eliminate possibility that some other ABC type transporter expressed in KB-8-5-11 cells might be responsible for this phenomenon, mouse fibroblasts, line ConA, permanently expressing human P-gp as a result of transfection with MDR1 cDNA-expressing plasmid LNL6 were used.

KB-3-1 cells = experiment: Drug sensitivity assay, KB-3-1 cells (P-gp-negative); format: cell-based, human
Protocol: (§1) Drug sensitivity assays. To estimate drug-mediated growth inhibition, 10^3 cells were plated per well of 96-well plates, and incubated with a range of concentrations of drugs added 24 hours after plating. After 5 to 7 hours of drug treatment, plates were fixed and stained using 2% methylene blue solution in 50% methanol. After elution by 1% SDS solution, optical density was determined on a Multiscan Ascent reader (Lybsystems, Helsinki, Finland) at 650 nm.
(§2) To determine transporter specificity of the identified compounds, the compounds were tested on cells differing in the type of multidrug transporter expressed: KB-8-5-11 cells, (expressing P-gp), SW1753-A120 cells (expressing MRP1), and KB-3-1 (expressing neither of the above transporters and highly sensitive to drugs that are P-gp or MRP1 substrates).

P-gp [2] = target: T1, P-gp; experiment: Rho123 accumulation in KB-8-5-11 cells; format: cell-based; set-up: overexpressing P-gp as a result of MDR1 gene amplification (20); endogenous in cells; host or cells: KB-8-5-11 (multidrug resistant derivative of KB-3-1); conditions: KB-8-5-11 cells overexpressing P-gp
Excerpt: (§3) Drug accumulation and efflux assay.
To test the effect of Compound 102 specifically on P-gp, a pair of human cell lines used as conventional models for studying P-gp, i.e., P-gp-negative KB-3-1 and its multidrug resistant derivative KB-8-5-11, overexpressing P-gp as a result of MDR1 gene amplification (20), were used.

P-gp [3] = experiment: Rho123 efflux from preloaded ConA cells; format: cell-based, mouse; set-up: increase of efflux of Rho123 from cells preloaded with the dye: dose or concentration left out as unconfirmed
Protocol: (§4) Drug accumulation and efflux assay. […] For drug efflux assay, cells after drug incubation were washed thoroughly with PBS, incubated in a drug-free media with or without compounds from the chemical library, and harvested at different time points for flow cytometric analysis (18).
The dynamics of reduction of Rho123 fluorescence was monitored by flow cytometry.

mouse ConA cells = experiment: DMBA sensitivity of mouse cells; format: cell-based
Protocol: (§5) The effect of the identified compounds on DMBA sensitivity of mouse cells also was tested. It has been reported that ABC type transporters (e.g., P-gp) are involved in the efflux of polycyclic aromatic hydrocarbon carcinogens from cells. The effect of the identified compounds on sensitivity of mouse cells to 7,12-dimethylbenz[a]anthracene (DMBA) was determined. […].

SW1753-A120 cells = experiment: Drug sensitivity assay, SW1753-A120 cells (expressing MRP1); format: cell-based; conditions: P-gp-negative; for cell sensitivity to vinblastine: MRP1-positive cells SW1753-A120 (FIG. 13)
Protocol: as §2

ConA cells = experiment: Drug sensitivity (growth inhibition) assay, ConA cells; format: cell-based, mouse; conditions: for IC50: Mus musculus, murine ConA cells, read-out: 50% growth inhibitory dose of the drug
Protocol: as §1, with “After 5 to 7 hours of drug treatment, plates were fixed and stained using 2% methylene blue solution in 50% methanol.” left out

P-gp [4] = target: T1, P-gp; experiment: P-gp-mediated efflux of taxol by KB-8-5-11 cells; format: cell-based; set-up: overexpressing P-gp as a result of MDR1 gene amplification (20); endogenous in cells; host or cells: KB-8-5-11 (multidrug resistant derivative of KB-3-1)
Excerpt: as §3
Consistent with the drug sensitivity data, Compound 102 suppressed P-gp-mediated efflux of taxol by KB-8-5-11 cells, acting as a P-gp inhibitor for this drug (FIGS. 4 and 5). These observations indicate that Compound 102 should be defined as a modulator rather than a general activator of P-gp that acts by changing relative substrate specificity of the transporter.

KB-8-5-11 cells = experiment: Drug sensitivity assay, KB-8-5-11 cells (P-gp-positive); format: cell-based, human; conditions: for IC50: Homo sapiens, human KB-8-5-11 cells, read-out: 50% growth inhibitory dose of the drug
Protocol: as §1, §2

[5] = DMBA sensitivity of mouse cells; format: cell-based; conditions: mouse fibroblasts, three days, without Compound 102; read-out: IC50 of DMBA cytotoxicity
Protocol: as §5

P-gp [6] = test system: P-gp
Protocol: as §1, §4

P-gp [7] = target: T1, P-gp
P-gp [8] = target: T1, P-gp; remark: listed apart in the source
P-gp [9] = experiment: Rho123 accumulation in ConA cells; format: cell-based, mouse; conditions: identified compounds present
Protocol: Screening of a chemical library. Murine fibroblastoid cell line (ConA) was selected as the readout system for screening a chemical library for P-gp activators. […] Rho123, a classic fluorescent P-gp substrate that is detected easily using multichannel fluorimeter in living cells, was used as an efflux indicator. […] Primary screening was performed on ConA cells for compounds that interfere with Adr-induced activation of p53-responsive reporter LacZ gene as previously described (11). To identify P-gp modulators, all “hits” isolated after primary screening were tested for their ability to modulate cellular accumulation of Rho123. Con A cells grown in 96-well plates were incubated 4 hours with 0.5 μM Rho123 in combination with individual library compounds (2 μg/ml (2-5 μM)), and cell fluorescence was analyzed using fluorescent microscopy.
as §4
ConA cells were incubated two hours with Rho123 ([…]) or daunorubicin (500 ng/ml) in the presence of the identified compounds, and accumulation of the drugs was quantitated by flow cytometry.

- resistance to doxorubicin (P-gp [1]; mouse ConA fibroblasts expressing human P-gp (FIG. 10)): increased resistance
- resistance to vinblastine (P-gp [1]; mouse ConA fibroblasts expressing human P-gp (data not shown)): decreased resistance
- Rho123 accumulation (P-gp [2]): strongly decreased
- P-gp-mediated efflux of taxol (P-gp [4]): suppressed
SMILES: Cc1ccc(-c2cn3c4c(sc3n2)CCCC4)cc1 [Compound 102, 2-p-Tolyl-5,6,7,8-tetrahydro-benzo[d]imidazo[2,1-b]thiazole]
- effect on drug sensitivity (KB-3-1 cells; P-gp-negative cell line KB-3-1): No effect
- increase of efflux of Rho123 from cells preloaded with the dye (P-gp [3]; ConA cells loaded with Rho123, Rho123-free medium, with vs without Compound 102 (FIGS. 2 and 3)): about 20 times
- protection of cells from cytotoxicity of DMBA (mouse ConA cells): strongly protects
- increase of natural level of resistance to DMBA (mouse ConA cells; mouse fibroblasts, 10 μM Compound 102): greater than 15 fold
- cell sensitivity to vinblastine (SW1753-A120 cells): no effect
- cell sensitivity to doxorubicin (SW1753-A120 cells; MRP1-positive cells SW1753-A120 (FIG. 16)): no effect
- cell sensitivity to colcemide (ConA cells; ConA cells grown 72 hours with drug with or without Compound 102 (FIG. 6)): no effect

- IC50 (KB-8-5-11 cells; with Compound 102): 1.2 µg/mL (≈ 2.21 µM)
- IC50 (KB-8-5-11 cells; without Compound 102): 0.2 µg/mL (≈ 0.368 µM)
SMILES: COc1cccc2c1C(=O)c1c(O)c3c(c(O)c1C2=O)C[C@@](O)(C(=O)CO)C[C@@H]3O[C@H]1C[C@H](N)[C@H](O)[C@H](C)O1 [Doxorubicin, adriamycin]
- Change in sensitivity (x-fold) (ConA cells; ConA cells, Compound 102 (10 μM), fold resistance): 6 x-fold
- IC50 (ConA cells; with Compound 102): 0.3 µg/mL (≈ 0.552 µM)
- IC50 (ConA cells; without Compound 102): 0.05 µg/mL (≈ 0.092 µM)
- Effect of Compound 102 on drug sensitivity of cell lines: ConA (Balb 3T3) (ConA cells; P-gp-positive ConA cells, label = drug): R
- cytotoxicity of the drug in the presence of Compound 102 (P-gp [6]): less toxic

- changes in cell cross resistance to P-gp substrates tested (P-gp [7]): did not cause detectable changes
- effect on P-gp-mediated Rho123 efflux (P-gp [8]): weak effect
SMILES: CC(=O)[C@H]1CC[C@H]2[C@@H]3CCC4=CC(=O)CC[C@]4(C)[C@H]3CC[C@]12C [progesterone]

Second part, the molecule before the results:

SMILES: Cc1ccccc1Cn1c(=O)sc2ccccc21 [Compound 103]
- cell sensitivity to vinblastine (KB-3-1 cells; P-gp- and MRP1-negative cells KB-3-1 (FIG. 14)): weak sensitizing effect
- cell sensitivity to doxorubicin (KB-3-1 cells; P-gp- and MRP1-negative cells KB-3-1 (FIG. 17)): can increase cell resistance
- cell sensitivity to doxorubicin (KB-8-5-11 cells; P-gp-positive cells KB-8-5-11 (FIG. 15)): increase cell sensitivity
- cell sensitivity to vinblastine (SW1753-A120 cells): increases; also recorded: weak sensitizing effect

SMILES: Cc1c2ccccc2c(C)c2c1ccc1ccccc12 [DMBA, 7,12-dimethylbenz[a]anthracene]
- IC50 at 3 days [5]: 0.31 µM
- IC50 (mouse ConA cells; Mus musculus, Fibroblast, 72 h, read-out: IC50 of DMBA cytotoxicity): 5 µM

SMILES: COC(=O)[C@H]1[C@H]2C[C@@H]3c4[nH]c5cc(OC)ccc5c4CCN3C[C@H]2C[C@@H](OC(=O)c2cc(OC)c(OC)c(OC)c2)[C@@H]1OC [reserpine]
- effect of P-gp inhibitor on Compound 102-stimulated Rho123 efflux (P-gp [3]; ConA cells preloaded with Rho123, Compound 102 present): completely reverted
- effect of P-gp inhibitor on compound-mediated reduction of Adr and Rho123 accumulation (P-gp [9]): completely reverted
